Here are results for one compound from ChEMBL document CHEMBL5614413, “Design, synthesis and biological evaluation of amphiphilic benzopyran derivatives as potent antibacterial agents against multidrug-resistant bacteria” (Eur J Med Chem, 2024).

Each structure is given as a SMILES string.

The subject of this assay is Staphylococcus aureus. Nature of the assay: Drug resistance, ratio of MIC for methicillin-resistant Staphylococcus aureus ATCC 43300 after 19 days exposure to MIC for methicillin-resistant Staphylococcus aureus ATCC 43300 during first exposure. The format is functional. Conditions: time 19 day.

Take `CCn1cc(C(=O)O)c(=O)c2cc(F)c(N3CCNCC3)cc21` [NORFLOXACIN]: the Ratio is reported as 512.
